Source: the supplement of paper PMC13207355

Columns and labels:
Conditions in all cases: exposure time: 72 h
FT3469 [1] = normal neural stem cell line; assay: surviving fraction (nuclei count normalised to DMSO); higher = more cells surviving (less toxic)
E28 [2] = patient-derived glioblastoma stem cells of classical subtype; assay: as above
E31 [3] = patient-derived glioblastoma stem cells of proneural subtype; assay: as above
E34 [4] = patient-derived glioblastoma stem cells of proneural subtype; assay: as above
E57 [5] = patient-derived glioblastoma stem cells of mesenchymal subtype; assay: as above
E21 [6] = patient-derived glioblastoma stem cells of mesenchymal subtype; assay: as above
E13 [7] = patient-derived glioblastoma stem cells of classical subtype; assay: as above
FT3469 [8] = assay: phenotypic distance (Euclidean, principal components) from DMSO controls (arbitrary units); higher = stronger morphological change
E28 [9] = assay: as above
E31 [10] = assay: as above
E34 [11] = assay: as above
E57 [12] = assay: as above
E21 [13] = assay: as above
E13 [14] = assay: as above
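Throughout, for phenotypic distance (Euclidean, principal components) from DMSO controls: cell Painting imaging in 384-well plates, CellProfiler features reduced to at least 20 principal components, Euclidean distance versus same-plate DMSO vehicle wells (0.1% v/v), median over six images per well.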
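Throughout, for surviving fraction (nuclei count normalised to DMSO): nuclei counted by high-content imaging of Hoechst-stained cells in laminin-coated 384-well plates, relative to 0.1% DMSO vehicle wells, with staurosporine as cell-death control.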

O=C(/C=C\n1cnc(-c2cc(C(F)(F)F)cc(C(F)(F)F)c2)n1)NNc1cnccn1 [Selinexor]
Conditions	phenotypic distance	surviving fraction
E13 [7], 4.1 nM	–	0.654
E13 [7], 12.3 nM	–	0.572
E13 [7], 37 nM	–	0.418
E13 [7], 111.1 nM	–	0.355
E13 [7], 333.3 nM	–	0.384
E13 [7], 1000 nM	–	0.31
E13 [7], 3000 nM	–	0.242
E13 [14], 4.1 nM	1.6	–
E13 [14], 12.3 nM	2.09	–
E13 [14], 37 nM	3.06	–
E13 [14], 111.1 nM	3.35	–
E13 [14], 333.3 nM	3.49	–
E13 [14], 1000 nM	3.23	–
E13 [14], 3000 nM	4.73	–
E21 [6], 4.1 nM	–	0.753
E21 [6], 12.3 nM	–	0.729
E21 [6], 37 nM	–	0.667
E21 [6], 111.1 nM	–	0.572
E21 [6], 333.3 nM	–	0.541
E21 [6], 1000 nM	–	0.51
E21 [6], 3000 nM	–	0.315
E21 [13], 4.1 nM	2.91	–
E21 [13], 12.3 nM	3.17	–
E21 [13], 37 nM	3.01	–
E21 [13], 111.1 nM	3.44	–
E21 [13], 333.3 nM	3.53	–
E21 [13], 1000 nM	3.96	–
E21 [13], 3000 nM	4.26	–
E28 [2], 4.1 nM	–	0.643
E28 [2], 12.3 nM	–	0.605
E28 [2], 37 nM	–	0.441
E28 [2], 111.1 nM	–	0.4
E28 [2], 333.3 nM	–	0.327
E28 [2], 1000 nM	–	0.373
E28 [2], 3000 nM	–	0.246
E28 [9], 4.1 nM	1.34	–
E28 [9], 12.3 nM	1.88	–
E28 [9], 37 nM	2.76	–
E28 [9], 111.1 nM	2.65	–
E28 [9], 333.3 nM	2.86	–
E28 [9], 1000 nM	2.69	–
E28 [9], 3000 nM	3.06	–
E31 [3], 4.1 nM	–	0.703
E31 [3], 12.3 nM	–	0.51
E31 [3], 37 nM	–	0.444
E31 [3], 111.1 nM	–	0.38
E31 [3], 333.3 nM	–	0.311
E31 [3], 1000 nM	–	0.331
E31 [3], 3000 nM	–	0.239
E31 [10], 4.1 nM	2.16	–
E31 [10], 12.3 nM	2.72	–
E31 [10], 37 nM	2.72	–
E31 [10], 111.1 nM	3.08	–
E31 [10], 333.3 nM	2.98	–
E31 [10], 1000 nM	2.55	–
E31 [10], 3000 nM	3.17	–
E34 [4], 4.1 nM	–	0.782
E34 [4], 12.3 nM	–	0.833
E34 [4], 37 nM	–	0.867
E34 [4], 111.1 nM	–	0.547
E34 [4], 333.3 nM	–	0.582
E34 [4], 1000 nM	–	0.569
E34 [4], 3000 nM	–	0.582
E34 [11], 4.1 nM	1.14	–
E34 [11], 12.3 nM	1.28	–
E34 [11], 37 nM	1.6	–
E34 [11], 111.1 nM	1.64	–
E34 [11], 333.3 nM	1.71	–
E34 [11], 1000 nM	1.72	–
E34 [11], 3000 nM	2.17	–
E57 [5], 4.1 nM	–	0.554
E57 [5], 12.3 nM	–	0.554
E57 [5], 37 nM	–	0.43
E57 [5], 111.1 nM	–	0.286
E57 [5], 333.3 nM	–	0.313
E57 [5], 1000 nM	–	0.32
E57 [5], 3000 nM	–	0.244
E57 [12], 4.1 nM	2.64	–
E57 [12], 12.3 nM	2.17	–
E57 [12], 37 nM	2.78	–
E57 [12], 111.1 nM	3.97	–
E57 [12], 333.3 nM	4.39	–
E57 [12], 1000 nM	5.44	–
E57 [12], 3000 nM	6.2	–
FT3469 [1], 4.1 nM	–	0.614
FT3469 [1], 12.3 nM	–	0.659
FT3469 [1], 37 nM	–	0.616
FT3469 [1], 111.1 nM	–	0.614
FT3469 [1], 333.3 nM	–	0.692
FT3469 [1], 1000 nM	–	0.556
FT3469 [1], 3000 nM	–	0.612
FT3469 [8], 4.1 nM	1.68	–
FT3469 [8], 12.3 nM	2.14	–
FT3469 [8], 37 nM	1.85	–
FT3469 [8], 111.1 nM	1.78	–
FT3469 [8], 333.3 nM	2.12	–
FT3469 [8], 1000 nM	1.48	–
FT3469 [8], 3000 nM	1.57	–

C[C@H](Cc1cc2c(c(C(N)=O)c1)N(CCCO)CC2)NCCOc1ccccc1OCC(F)(F)F [Silodosin]
Conditions	phenotypic distance	surviving fraction
E13 [7], 4.1 nM	–	0.879
E13 [7], 12.3 nM	–	0.889
E13 [7], 37 nM	–	0.914
E13 [7], 111.1 nM	–	0.899
E13 [7], 333.3 nM	–	0.859
E13 [7], 1000 nM	–	0.9
E13 [7], 3000 nM	–	0.93
E13 [14], 4.1 nM	0.445	–
E13 [14], 12.3 nM	0.872	–
E13 [14], 37 nM	0.863	–
E13 [14], 111.1 nM	0.966	–
E13 [14], 333.3 nM	0.915	–
E13 [14], 1000 nM	0.684	–
E13 [14], 3000 nM	0.641	–
E21 [6], 4.1 nM	–	0.872
E21 [6], 12.3 nM	–	0.94
E21 [6], 37 nM	–	0.885
E21 [6], 111.1 nM	–	0.958
E21 [6], 333.3 nM	–	0.998
E21 [6], 1000 nM	–	1.04
E21 [6], 3000 nM	–	1.03
E21 [13], 4.1 nM	2.39	–
E21 [13], 12.3 nM	1.7	–
E21 [13], 37 nM	1.04	–
E21 [13], 111.1 nM	0.791	–
E21 [13], 333.3 nM	0.998	–
E21 [13], 1000 nM	0.539	–
E21 [13], 3000 nM	1.04	–
E28 [2], 4.1 nM	–	0.896
E28 [2], 12.3 nM	–	0.951
E28 [2], 37 nM	–	0.935
E28 [2], 111.1 nM	–	0.781
E28 [2], 333.3 nM	–	0.941
E28 [2], 1000 nM	–	0.892
E28 [2], 3000 nM	–	0.877
E28 [9], 4.1 nM	0.716	–
E28 [9], 12.3 nM	0.594	–
E28 [9], 37 nM	0.634	–
E28 [9], 111.1 nM	0.795	–
E28 [9], 333.3 nM	0.798	–
E28 [9], 1000 nM	0.495	–
E28 [9], 3000 nM	0.823	–
E31 [3], 4.1 nM	–	1.03
E31 [3], 12.3 nM	–	0.873
E31 [3], 37 nM	–	0.879
E31 [3], 111.1 nM	–	0.922
E31 [3], 333.3 nM	–	0.967
E31 [3], 1000 nM	–	0.962
E31 [3], 3000 nM	–	0.852
E31 [10], 4.1 nM	0.63	–
E31 [10], 12.3 nM	0.581	–
E31 [10], 37 nM	1.01	–
E31 [10], 111.1 nM	0.959	–
E31 [10], 333.3 nM	0.426	–
E31 [10], 1000 nM	0.534	–
E31 [10], 3000 nM	1.14	–
E34 [4], 4.1 nM	–	0.923
E34 [4], 12.3 nM	–	0.923
E34 [4], 37 nM	–	0.82
E34 [4], 111.1 nM	–	0.869
E34 [4], 333.3 nM	–	0.932
E34 [4], 1000 nM	–	0.863
E34 [4], 3000 nM	–	0.802
E34 [11], 4.1 nM	1.06	–
E34 [11], 12.3 nM	0.76	–
E34 [11], 37 nM	0.492	–
E34 [11], 111.1 nM	2.26	–
E34 [11], 333.3 nM	0.348	–
E34 [11], 1000 nM	1.18	–
E34 [11], 3000 nM	1.12	–
E57 [5], 4.1 nM	–	0.935
E57 [5], 12.3 nM	–	0.844
E57 [5], 37 nM	–	0.878
E57 [5], 111.1 nM	–	0.843
E57 [5], 333.3 nM	–	0.955
E57 [5], 1000 nM	–	0.911
E57 [5], 3000 nM	–	0.792
E57 [12], 4.1 nM	0.807	–
E57 [12], 12.3 nM	1.04	–
E57 [12], 37 nM	0.711	–
E57 [12], 111.1 nM	1.62	–
E57 [12], 333.3 nM	0.512	–
E57 [12], 1000 nM	0.794	–
E57 [12], 3000 nM	1.7	–
FT3469 [1], 4.1 nM	–	0.874
FT3469 [1], 12.3 nM	–	0.91
FT3469 [1], 37 nM	–	1.05
FT3469 [1], 111.1 nM	–	0.959
FT3469 [1], 333.3 nM	–	0.939
FT3469 [1], 1000 nM	–	0.815
FT3469 [1], 3000 nM	–	0.925
FT3469 [8], 4.1 nM	1.28	–
FT3469 [8], 12.3 nM	0.608	–
FT3469 [8], 37 nM	0.869	–
FT3469 [8], 111.1 nM	0.648	–
FT3469 [8], 333.3 nM	1.02	–
FT3469 [8], 1000 nM	0.845	–
FT3469 [8], 3000 nM	1.05	–
